Measurements published in US12209102B2, “Heterocyclic compounds and uses thereof” (Kumquat Biosciences Inc., priority 2022, dated 2025).

Key:
Format in all cases: biochemical
K-Ras G12S = molecular target: T1, K-Ras G12S (Homo sapiens, UniProt P01116, G12S); assay: HTRF resonance energy transfer assay, K-Ras G12S / SOS1 interaction; conditions: HTRF assay of Example 5; read-out: IC50 against K-Ras G12S
T1 construct: made in house; host or cells: E. coli BL21 (DE3)
Summary of the method: (§1)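 GST-tagged K-Ras (WT or mutant) bound to anti-GST-Eu donor was mixed with His-hSOS1 bound to anti-6His-XL665 acceptor in ~5 mM HEPES pH 7.4, 150 mM NaCl, 1 mM DTT, 0.05% BSA, 0.0025% Igepal. HTRF (ex 337, em 620/665 nm) was read after ~10 min or longer. IC50 came from the 665/620 ratio over duplicates from 10 μM to 0.01 μM.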

K-Ras WT = molecular target: T2, K-Ras WT (Homo sapiens, UniProt P01116); assay: HTRF resonance energy transfer assay, K-Ras WT / SOS1 interaction; conditions: HTRF assay of Example 5; read-out: IC50 against K-Ras WT
T2 construct: made in house; host or cells: E. coli BL21 (DE3)
T2 sequence (P01116 1-188 isoform P01116-2): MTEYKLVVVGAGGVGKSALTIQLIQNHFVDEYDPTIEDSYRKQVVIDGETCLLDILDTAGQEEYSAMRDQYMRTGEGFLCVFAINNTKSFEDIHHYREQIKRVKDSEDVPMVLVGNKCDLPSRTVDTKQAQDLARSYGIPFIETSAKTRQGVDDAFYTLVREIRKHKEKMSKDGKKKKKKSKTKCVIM
Summary of the method: as §1

K-Ras G12D = molecular target: T3, K-Ras G12D (Homo sapiens, UniProt P01116, G12D); assay: HTRF resonance energy transfer assay, K-Ras G12D / SOS1 interaction; conditions: HTRF assay of Example 5; read-out: IC50 against K-Ras G12D
T3 construct: made in house; host or cells: E. coli BL21 (DE3)
T3 sequence (P01116 1-188 isoform P01116-2 G12D): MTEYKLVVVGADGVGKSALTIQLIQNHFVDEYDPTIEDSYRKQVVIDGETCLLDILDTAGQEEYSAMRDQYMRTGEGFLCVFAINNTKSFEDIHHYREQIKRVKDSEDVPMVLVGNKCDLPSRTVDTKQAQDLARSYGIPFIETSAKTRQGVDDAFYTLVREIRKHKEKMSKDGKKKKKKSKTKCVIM
Summary of the method: as §1

K-Ras G12V = molecular target: T4, K-Ras G12V (Homo sapiens, UniProt P01116, G12V); assay: HTRF resonance energy transfer assay, K-Ras G12V / SOS1 interaction; conditions: HTRF assay of Example 5; read-out: IC50 against K-Ras G12V
T4 construct: made in house; host or cells: E. coli BL21 (DE3)
T4 sequence (P01116 1-188 isoform P01116-2 G12V): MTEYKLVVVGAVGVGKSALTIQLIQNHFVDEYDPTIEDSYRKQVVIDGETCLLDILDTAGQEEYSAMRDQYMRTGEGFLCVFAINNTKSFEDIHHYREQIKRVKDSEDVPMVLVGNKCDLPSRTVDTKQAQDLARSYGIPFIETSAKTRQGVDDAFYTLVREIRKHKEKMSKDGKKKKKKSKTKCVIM
Summary of the method: as §1

Measured: IC50

T1 sequence (P01116 1-188 isoform P01116-2 G12S): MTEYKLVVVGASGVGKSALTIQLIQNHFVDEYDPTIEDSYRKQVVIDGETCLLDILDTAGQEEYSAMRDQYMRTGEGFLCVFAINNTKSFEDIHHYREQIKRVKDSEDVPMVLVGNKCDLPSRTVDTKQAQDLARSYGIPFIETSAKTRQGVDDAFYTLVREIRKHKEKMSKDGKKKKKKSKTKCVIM

C#Cc1c(F)ccc2cc(O)cc(-c3nc4c5c(nc(OC[C@@]67CCCN6C[C@H](F)C7)nc5c3F)N(C3CCNC3)CCO4)c12 (stereo partly drawn) [Compound 939, 5-ethynyl-6-fluoro-4-(4-fluoro-2-(((2R,7aS)-2-fluorotetrahydro-1H-pyrrolizin-7a(5H)-yl)methoxy)-10-(pyrrolidin-3-yl)-9,10-dihydro-8H-7-oxa-1,3,6,10-tetraazacyclohepta[de]naphthalen-5-yl)naphthalen-2-ol]
< 100 nM: all assays above

CC1Oc2c(Cl)c(-c3ccc(F)c4sc(N)c(C#N)c34)c(F)c3nc(OC[C@@]45CCCN4C[C@H](F)C5)nc(c23)N(CC(F)F)C1CC#N (stereo partly drawn) [Compound 968, 2-amino-4-(8-chloro-5-(cyanomethyl)-4-(2,2-difluoroethyl)-10-fluoro-2-(((2R,7aS)-2-fluorotetrahydro-1H-pyrrolizin-7a(5H)-yl)methoxy)-6-methyl-5,6-dihydro-4H-[1,4]oxazepino[5,6,7-de]quinazolin-9-yl)-7-fluorobenzo[b]thiophene-3-carbonitrile]
< 100 nM: all assays above

CC(=O)C1COc2c(Cl)c(-c3ccc(F)c4sc(N)c(C#N)c34)c(F)c3nc(OC[C@@]45CCCN4C[C@H](F)C5)nc(c23)N1CC(F)F (stereo partly drawn) [Compound 981, 4-(5-acetyl-8-chloro-4-(2,2-difluoroethyl)-10-fluoro-2-(((2R,7aS)-2-fluorotetrahydro-1H-pyrrolizin-7a(5H)-yl)methoxy)-5,6-dihydro-4H-[1,4]oxazepino[5,6,7-de]quinazolin-9-yl)-2-amino-7-fluorobenzo[b]thiophene-3-carbonitrile]
< 100 nM: all assays above

N#Cc1c(N)sc2c(F)ccc(-c3c(Cl)c4c5c(nc(OC[C@@]67CCCN6C[C@H](F)C7)nc5c3F)N(CC(F)F)C(C3CC3(F)F)CO4)c12 (stereo partly drawn) [Compound 987, 2-amino-4-(8-chloro-5-(2,2-difluorocyclopropyl)-4-(2,2-difluoroethyl)-10-fluoro-2-(((2R,7aS)-2-fluorotetrahydro-1H-pyrrolizin-7a(5H)-yl)methoxy)-5,6-dihydro-4H-[1,4]oxazepino[5,6,7-de]quinazolin-9-yl)-7-fluorobenzo[b]thiophene-3-carbonitrile]
< 100 nM: all assays above

Cn1nc(NC(=O)C2CN2)cc1CN1CCOc2c(Cl)c(-c3ccc(F)c4sc(N)c(C#N)c34)c(F)c3nc(OC[C@@]45CCCN4C[C@H](F)C5)nc1c23 (stereo partly drawn) [Compound 999, N-(5-((9-(2-amino-3-cyano-7-fluorobenzo[b]thiophen-4-yl)-8-chloro-10-fluoro-2-(((2R,7aS)-2-fluorotetrahydro-1H-pyrrolizin-7a(5H)-yl)methoxy)-5,6-dihydro-4H-[1,4]oxazepino[5,6,7-de]quinazolin-4-yl)methyl)-1-methyl-1H-pyrazol-3-yl)aziridine-2-carboxamide]
< 100 nM: all assays above

C[C@H]1C[C@@H](N2CCOc3c(Cl)c(-c4ccc(F)c5sc(N)c(C#N)c45)c(F)c4nc(OC[C@@]56CCCN5C[C@H](F)C6)nc2c34)CN1 [Compound 1010, 2-amino-4-(8-chloro-10-fluoro-2-(((2R,7aS)-2-fluorotetrahydro-1H-pyrrolizin-7a(5H)-yl)methoxy)-4-((3R,5S)-5-methylpyrrolidin-3-yl)-5,6-dihydro-4H-[1,4]oxazepino[5,6,7-de]quinazolin-9-yl)-7-fluorobenzo[b]thiophene-3-carbonitrile]
< 100 nM: all assays above

CN1c2nc(OC[C@@]34CCCN3C[C@H](F)C4)nc3c(F)c(-c4ccc(F)c5sc(N)c(C#N)c45)c(Cl)c(c23)OC[C@@H]1CNC(=O)C(F)F [Compound 1018, N-(((5S)-9-(2-amino-3-cyano-7-fluorobenzo[b]thiophen-4-yl)-8-chloro-10-fluoro-2-(((2R,7aS)-2-fluorotetrahydro-1H-pyrrolizin-7a(5H)-yl)methoxy)-4-methyl-5,6-dihydro-4H-[1,4]oxazepino[5,6,7-de]quinazolin-5-yl)methyl)-2,2-difluoroacetamide]
< 100 nM: all assays above

C#Cc1c(F)ccc2cc(O)cc(-c3nc4c5c(nc(OC[C@@]67CCCN6C[C@H](F)C7)nc5c3F)N(C3CCN(C=O)C3)CCO4)c12 (stereo partly drawn) [Compound 1019, 3-(5-(8-ethynyl-7-fluoro-3-hydroxynaphthalen-1-yl)-4-fluoro-2-(((2R,7aS)-2-fluorotetrahydro-1H-pyrrolizin-7a(5H)-yl)methoxy)-8,9-dihydro-10H-7-oxa-1,3,6,10-tetraazacyclohepta[de]naphthalen-10-yl)pyrrolidine-1-carbaldehyde]
< 100 nM: all assays above

N#Cc1c(N)sc2c(F)ccc(-c3c(Cl)c4c5c(nc(OC[C@@]67CCCN6C[C@H](F)C7)nc5c3F)N(Cc3ccn[nH]3)CCO4)c12 [Compound 1023, 4-(4-((1H-pyrazol-5-yl)methyl)-8-chloro-10-fluoro-2-(((2R,7aS)-2-fluorotetrahydro-1H-pyrrolizin-7a(5H)-yl)methoxy)-5,6-dihydro-4H-[1,4]oxazepino[5,6,7-de]quinazolin-9-yl)-2-amino-7-fluorobenzo[b]thiophene-3-carbonitrile]
< 100 nM: all assays above

N#CCC1COc2c(Cl)c(-c3ccc(F)c4sc(N)c(C#N)c34)c(F)c3nc(OC[C@@]45CCCN4C[C@H](F)C5)nc(c23)N1CCCN (stereo partly drawn) [Compound 1029, 2-amino-4-(4-(3-aminopropyl)-8-chloro-5-(cyanomethyl)-10-fluoro-2-(((2R,7aS)-2-fluorotetrahydro-1H-pyrrolizin-7a(5H)-yl)methoxy)-5,6-dihydro-4H-[1,4]oxazepino[5,6,7-de]quinazolin-9-yl)-7-fluorobenzo[b]thiophene-3-carbonitrile]
< 100 nM: all assays above

C/C=C\[C@H]1COc2c(Cl)c(-c3ccc(F)c4sc(N)c(C#N)c34)c(F)c3nc(OC[C@@]45CCCN4C[C@H](F)C5)nc(c23)N1CC(F)F [Compound 1032, 2-amino-4-((5S)-8-chloro-4-(2,2-difluoroethyl)-10-fluoro-2-(((2R,7aS)-2-fluorotetrahydro-1H-pyrrolizin-7a(5H)-yl)methoxy)-5-((Z)-prop-1-en-1-yl)-5,6-dihydro-4H-[1,4]oxazepino[5,6,7-de]quinazolin-9-yl)-7-fluorobenzo[b]thiophene-3-carbonitrile]
< 100 nM: all assays above

N#Cc1c(N)sc2c(F)ccc(-c3c(Cl)c4c5c(nc(OC[C@@]67CCCN6C[C@H](F)C7)nc5c3F)N(C3CCCNCC3)CCO4)c12 (stereo partly drawn) [Compound 1059, 2-amino-4-(4-(azepan-4-yl)-8-chloro-10-fluoro-2-(((2R,7aS)-2-fluorotetrahydro-1H-pyrrolizin-7a(5H)-yl)methoxy)-5,6-dihydro-4H-[1,4]oxazepino[5,6,7-de]quinazolin-9-yl)-7-fluorobenzo[b]thiophene-3-carbonitrile]
< 100 nM: all assays above

C#Cc1c(F)ccc2cc(O)cc(-c3nc4c5c(nc(OC[C@@]67CCCN6C[C@H](F)C7)nc5c3F)N(C3CCCN(C=O)C3)CCO4)c12 (stereo partly drawn) [Compound 1066, 3-(5-(8-ethynyl-7-fluoro-3-hydroxynaphthalen-1-yl)-4-fluoro-2-(((2R,7aS)-2-fluorotetrahydro-1H-pyrrolizin-7a(5H)-yl)methoxy)-8,9-dihydro-10H-7-oxa-1,3,6,10-tetraazacyclohepta[de]naphthalen-10-yl)piperidine-1-carbaldehyde]
< 100 nM: all assays above

CC1(O)CCCC(N2CCOc3c(Cl)c(-c4ccc(F)c5sc(N)c(C#N)c45)c(F)c4nc(OC[C@@]56CCCN5C[C@H](F)C6)nc2c34)C1 (stereo partly drawn) [Compound 1069, 2-amino-4-(8-chloro-10-fluoro-2-(((2R,7aS)-2-fluorotetrahydro-1H-pyrrolizin-7a(5H)-yl)methoxy)-4-(3-hydroxy-3-methylcyclohexyl)-5,6-dihydro-4H-[1,4]oxazepino[5,6,7-de]quinazolin-9-yl)-7-fluorobenzo[b]thiophene-3-carbonitrile]
< 100 nM: all assays above
